Data on six compounds can be found in patent US20110300198A1, “HYDROCOLLOID - ESSENTIAL OIL PATCHES” (priority 2010, published 2011).

Each structure is given as a SMILES string. Structures can show the parent of a compound that is named as a salt. Marks after values point to notes of the source that are not given here.

Data set [1] can be described thus: Decomposition of internal standards in blood and skin extract (GC, GC-MS). It is filed as in vitro ADME, rat. The conditions noted are these: for Stability in the blood: GC-MS. On the procedure: Linalyl isovalerate and geranyl formate were tested for their suitability as internal standards for linalool and linalyl acetate using headspace (HS)-SPME. Linalyl isovalerate was chosen as the most appropriate internal standard on the basis of area formed under the peak. A stock solution of linalyl isovalerate in acetonitrile (25 mg L^−1) was further diluted with acetonitrile to produce an aqueous solution of linalyl isovalerate (5 mg L^−1). A 10-μl volume of the aqueous linalyl isovalerate stock solution was added as the internal standard to each sample. Standard was prepared from 0.5 ml of blank blood, 10 μl internal standard (0.0026 mg linalyl isovalerate in 25 ml acetonitrile) and an appropriate dilution of lavender oil in 10 μl acetonitrile. Lavender oil was first dissolved in acetonitrile (625 mg L^−1) and further diluted with acetonitrile to make intermediate standards (0.5, 1, 5, 25 and 125 mg L^−1). The calibration curves were plotted using the peak area ratio of linalool (the main constituent of lavender oil) and linalyl isovalerate vs. linalool concentration. A standard stock solution of lavender oil (625 mg L^−1) was prepared in acetonitrile. Calibration standards for determination of linear dynamic range were prepared by serial dilutions with acetonitrile. For quantitative analysis of lavender oil in the blood, working standard solutions containing 0.5, 1, 5, 25 and 125 mg L^−1 of lavender were prepared by dilution of the 625 mg L^−1 solution with acetonitrile. […] The compounds absorbed on the fiber were detached and analyzed by exposing the fiber for 5 min in the injection port.
Two standards were checked for their suitability to this study: linalyl isovalerate and geranyl formate. […] Thus, although it is not possible to quantify linalool since the lavender essential oil may not be its only source, it is possible to quantify other components of lavender, and linalyl isovalerate was chosen to serve as the standard in the blood.

Data set [2] can be described thus: Preliminary in-vivo experiment, constituents in blood (GC, WAX column). More on the design: species or system rat. The conditions noted are these: rat, in vivo.
Data set [3] can be described thus: Ex-vivo transfer of essential-oil constituents through the skin in Franz diffusion cells. It is filed as in vitro ADME, rat. The note with it: for Accumulated concentration transferred through the skin: from gum karaya-Lavandula angustifolia essential oil patch (7.5% oil); for Accumulated concentration diffused through the skin: mixture of Lavandula angustifolia essential oil and almond oil rubbed on the skin. On the procedure: Ex-vivo release studies were performed in Franz diffusion cells (FCs) (PermeGear, Hellertown, Pa.). Stomach skin pieces (1.2 cm×1.2 cm) from a male rat, which were stored in the freezer for 1 month, were thawed at room temperature and placed in glass FCs. The surface area for absorption was 0.64 cm2. The FCs were thermoregulated with a water jacket at 32° C. The 4.5-ml volume of the receptor chamber of the FC was filled with a receptor solution containing 5% (w/v) bovine serum albumin (BSA) diluted with phosphate buffer pH 7.4. […] The receptor solution was continuously agitated with a magnetic stirrer. During the experiments, the donor compartments and sampling arms were sealed to prevent evaporation. The fluid in the receptor chamber was removed after different periods of time (0, 6, 12, 24, 36 and 48 h) and replaced with fresh phosphate buffer solution. Samples were stored at 4° C. after sampling, prior to analysis. Samples were analyzed in a gas chromatograph (Agilent Technologies, Santa Clara, Calif.) with a WAX 30 m×0.32 mm×0.25 μm (Agilent) column.
Transdermal delivery of essential-oil components through rat skin from both lavender essential oil, which includes a high proportion of terpenoids, and Valencia orange essential oil, which includes a considerable amount of terpene, entrapped within gum-karaya-based patches, was examined. In addition to the regular patch adhered to the skin to be tested for essential-oil delivery by the traditional FCs and by in vivo tests (detailed below), another experiment was performed in which the skin was smeared with an almond-essential oil mixture, in order to partially imitate the situation in which the skin is massaged in an aromatherapy session. All experiments were conducted at ambient temperature and the inclusion of the essential oil as part of the almond oil-essential oil mixture (for the massage-like simulation) was equal in quantity and proportion to the inclusion of essential oil within the patch.

Data set [4] is described as follows: In-vivo experiment with HP-5 column, constituents in blood. More on the design: species or system rat. The conditions noted are these: male, Sprague-Dawley, rat, in vivo. From the text:
(§1) Male Sprague-Dawley rats, weighing 300-350 g, were used in the studies (Harlan, Rehovot, Israel). The experimental protocols were approved by the Hebrew University of Jerusalem Committee on the Use and Care of Animals. Rats were maintained under specified-pathogen-free (SPF) conditions and were allowed to acclimate to the environment for at least 7 days before their use in the study. Rats were anesthetized and the fur on their stomach shaved prior to exposure. Gum karaya patches with and without lavender essential oil were applied to the rat's stomach skin. Each rat was housed in an individual cage in order to prevent oral contamination of the essential oil by one rat eating another's patch. Blood samples (0.5 ml) were taken at 0, 12, 24, 36, 48 and 60 h from a nick at the tip of tail to determine contents of essential-oil components. Rats were restrained and the tail was gently massaged to facilitate blood collection. Blood samples were collected in vials containing 0.1 ml heparin (100 kU, Sigma). A 10-μl volume of aqueous linalyl isovalerate stock solution was added as an internal standard to each blood sample and samples were stored at −80° C. After 60 h, patches were removed and the application site was wiped with 70% alcohol. Animals were sacrificed and the patch of stomach skin to which the essential oil patch had been applied was removed and minced into small pieces. The skin pieces were placed in 1 ml of ethanol containing linalyl isovalerate as the internal standard and sonicated for 30 min after heating to 50° C. A 10-μl aliquot was then injected straight into the gas chromatograph. A urine sample (0.5 ml) was obtained from the bladder immediately after sacrifice. Urine samples were similarly analyzed by gas chromatography (GC).
Blood (0.5 ml) or phosphate buffer (0.5 ml) was collected at t=0, 12, 24, 36, 48 and 60 h. Blood samples were placed in Eppendorf heparin-coated glass vials (Agilent) by heparin-washed syringe, which were sealed with septa and screw caps. Each vial contained 100 μl of heparin and blood samples were frozen at −80° C. for storage. Prior to analysis, the blood or phosphate buffer was thawed to room temperature, a 10-μl volume of internal standards (6.5 mg linalyl isovalerate and 6.5 mg geranyl formate in 25 ml acetonitrile) was added to the vial and then the mixture was vortexed. The vials were tightly capped using a clear cap with septum. The septa were pre-punctured immediately before analysis using a needle to facilitate the insertion of the fiber sheath. The fiber sheath was inserted through the septum, and positioned to expose the fiber in the center of the headspace. The vial was placed on a heating block to maintain temperature at a constant 50° C. and the solid-phase microextraction (SPME) assembly was clamped securely. Absorption time was 30 min. No stirring was required. After absorption, the SPME fiber sheath was immediately transferred to the GC injector for desorption for 5 min and GC analysis.
GC was performed on an Agilent 7890A gas chromatograph equipped with a split/splitless capillary injector, flame ionization detection (FID) system and GC Chem Station (Version B.03.01; Agilent Technologies 2007). Chromatography was carried out on a WAX or HP-5 column (30 m×0.32 mm×0.25 μm). The GC operating conditions were: splitless or split 1:40 injector 240° C., oven 50° C. for 1 min and then 10° C. min^−1 to 160° C., then 25° C. min^−1 to 240° C. and held for 6 min; the carrier gas was hydrogen.
In this experiment, patches containing lavender essential oil were adhered to the abdomen area. Patches without essential oil served as blanks. […] Detection under splitless conditions facilitated the detection of linalyl acetate, linalool, camphor, borneol and α-terpineol, the latter two being additional constituents detected only under these conditions. High concentrations of linalool, borneol and camphor were detected, in comparison to low levels of terpeneol and linalyl acetate. […]

Data set [5] is described as follows: In-vivo experiment with WAX column, constituents in blood. More on the design: species or system rat. The conditions noted are these: 7.5% lavender oil patch on abdomen; split injection.
Source text: as §1, with “After 60 h, patches were removed and the application site was wiped with 70% alcohol. Animals were sacrificed and the patch of stomach skin to which the essential oil patch had been applied was removed and minced into small pieces. The skin pieces were placed in 1 ml of ethanol containing linalyl isovalerate as the internal standard and sonicated for 30 min after heating to 50° C. A 10-μl aliquot was then injected straight into the gas chromatograph. A urine sample (0.5 ml) was obtained from the bladder immediately after sacrifice.” left out, “(GC). […]” for “(GC).”
Patches that included lavender essential oil were adhered to the abdomen skin for 60 h. […] Between 12 and 36 h, a similar, non-significant change in levels was detected. […]

The conditions of data set [6]: cited from earlier work.
The conditions of data set [7]: cited from earlier work. The source holds these as a separate data set.

For `C=CC(C)(CCC=C(C)C)OC(=O)CC(C)C` (stereo not drawn) [linalyl isovalerate], the “Stability in the blood” value in data set [1] is given as “decomposes in the blood”. In data set [1] (skin with essential oil-containing patch), the “Stability in the skin extract” value is on record as “did not decompose”.
For the compound `CC12CCC(CC1=O)C2(C)C` (stereo not drawn) [Camphor], the Detection in blood result in data set [2] is recorded as “No levels of camphor were detected”. Further, the “% diffused (of initial amount of entrapped essential oil)” value is on record as 0.00^a % in data set [3] (Almond-lavandula mixture, 0 h); 0.01 ± 0.01^a % in data set [3] (Almond-lavandula mixture, 6 h); 1.15 ± 1.26^a % in data set [3] (Almond-lavandula mixture, 12 h); 2.28 ± 0.08^a % in data set [3] (Almond-lavandula mixture, 24 h); 0.00^a % in data set [3] (Lavandula patch, 0 h); 0.70 ± 0.04^b % in data set [3] (Lavandula patch, 6 h). The “% diffused (of initial amount of entrapped essential oil)” value in data set [3] (Lavandula patch, 12 h) is reported as 1.02 ± 0.01^c %; in data set [3] (Lavandula patch, 24 h), 2.10 ± 0.32^d %. Further, the “Accumulated concentration transferred through the skin” value in data set [3] (6 h) is 0.51 ± 0.33^a mg/L; in data set [3] (12 h), 0.74 ± 0.02^b mg/L; in data set [3] (24 h) it was 1.53 ± 0.13^c mg/L. Besides, the “Accumulated concentration diffused through the skin” value was 0.01 ± 0.03^a mg L^−1 in data set [3] (6 h), 0.89 ± 0.98^a mg L^−1 in data set [3] (12 h) and 1.78 ± 0.06^a mg L^−1 in data set [3] (24 h). The Calculated steady-state flux in data set [3] (rubbing in a mixture with almond oil) is given as 5.7×10^−4 mg.cm^−2 h^−1; in data set [3] (transferred from a lavender essential oil patch), 4.3×10^−4 mg.cm^2 h^−1. Besides, in data set [4], the concentration at 60 h turned out to be 35 ng/mL. Also, the “Level in blood after 60 h” value in data set [5] is listed as “no traces”. Further, the Solubility in water entry in data set [6] is given as “relatively high”. In addition, the “Log P” value in data set [7] is recorded as “about 3”.
Turning to `C=C(C)[C@H]1CC=C(C)CC1` [d-Limonene], the “Log P” value in data set [7] is reported as “about 4”.
With `CC1(C)C2CCC1(C)C(O)C2` (stereo not drawn) [borneol, Borneol], in data set [4], the concentration at 60 h came to 31 ng/mL.
`CC(C)=CCC/C(C)=C/COC=O` [geranyl formate]: the “Stability in the blood” value in data set [1] is “decomposes in the blood”.
For the compound `CC1=CCC(C(C)(C)O)CC1` (stereo not drawn) [α-Terpeneol, α-Terpineol], the “Level in blood from 12 h onwards” value in data set [4] was in the range of 5 to 9 ng/mL.
